The values that follow come from ChEMBL document CHEMBL1201862, “PubChem BioAssay data set” (2004).

The source made the active and inactive calls.

In assay [1] the target is Protein-tyrosine kinase 6 (Homo sapiens, UniProt Q13882). Format: functional.
For assay [2], the target named is Tyrosine-protein kinase Srms (Homo sapiens, UniProt Q9H3Y6). Format: functional.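 Note: SRMS measured as one member of a kinome-wide kinase profiling panel.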
Assay [3] addresses Cyclin-dependent kinase 19 (Homo sapiens, UniProt Q9BWU1). Kind of assay: Navigating the Kinome. Panel member name: CDC2L6. Format: functional.
The target in assay [4] is Phosphorylase b kinase gamma catalytic chain, liver/testis isoform (Homo sapiens, UniProt P15735). Format: functional.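 Note: PHKG2 measured as one member of a kinome-wide kinase panel.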
The target of assay [5] is Serine/threonine-protein kinase DCLK1 (Homo sapiens, UniProt O15075). Format: functional.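 Note: affinity for DCLK1 (listed as DCAMKL1) measured as one member of a kinome-wide kinase profiling panel.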
In assay [6] the target is Hepatocyte growth factor receptor (Homo sapiens, UniProt P08581). It counts as functional.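 Note: kinase panel profiling across the kinome, with MET as the panel member.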
The target of assay [7] is Serine/threonine-protein kinase pim-2 (Homo sapiens, UniProt Q9P1W9). Format: functional.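 Note: value comes from a broad kinase panel profiling study in which PIM2 was one of the panel members.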
Serine/threonine-protein kinase pim-2, sequence (Q9P1W9 whole entry): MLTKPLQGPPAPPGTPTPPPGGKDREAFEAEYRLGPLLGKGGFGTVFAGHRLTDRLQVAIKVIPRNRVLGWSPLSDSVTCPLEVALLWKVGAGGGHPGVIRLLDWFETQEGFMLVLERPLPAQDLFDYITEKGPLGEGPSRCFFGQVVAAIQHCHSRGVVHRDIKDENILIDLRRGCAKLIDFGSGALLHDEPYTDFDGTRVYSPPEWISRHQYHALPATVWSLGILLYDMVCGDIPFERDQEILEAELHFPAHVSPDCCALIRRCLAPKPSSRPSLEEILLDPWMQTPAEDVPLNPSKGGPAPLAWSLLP
The target in assay [8] is Serine/threonine-protein kinase TAO1 (Homo sapiens, UniProt Q7L7X3). Format: functional.
Serine/threonine-protein kinase TAO1, sequence (Q7L7X3 whole entry, canonical isoform): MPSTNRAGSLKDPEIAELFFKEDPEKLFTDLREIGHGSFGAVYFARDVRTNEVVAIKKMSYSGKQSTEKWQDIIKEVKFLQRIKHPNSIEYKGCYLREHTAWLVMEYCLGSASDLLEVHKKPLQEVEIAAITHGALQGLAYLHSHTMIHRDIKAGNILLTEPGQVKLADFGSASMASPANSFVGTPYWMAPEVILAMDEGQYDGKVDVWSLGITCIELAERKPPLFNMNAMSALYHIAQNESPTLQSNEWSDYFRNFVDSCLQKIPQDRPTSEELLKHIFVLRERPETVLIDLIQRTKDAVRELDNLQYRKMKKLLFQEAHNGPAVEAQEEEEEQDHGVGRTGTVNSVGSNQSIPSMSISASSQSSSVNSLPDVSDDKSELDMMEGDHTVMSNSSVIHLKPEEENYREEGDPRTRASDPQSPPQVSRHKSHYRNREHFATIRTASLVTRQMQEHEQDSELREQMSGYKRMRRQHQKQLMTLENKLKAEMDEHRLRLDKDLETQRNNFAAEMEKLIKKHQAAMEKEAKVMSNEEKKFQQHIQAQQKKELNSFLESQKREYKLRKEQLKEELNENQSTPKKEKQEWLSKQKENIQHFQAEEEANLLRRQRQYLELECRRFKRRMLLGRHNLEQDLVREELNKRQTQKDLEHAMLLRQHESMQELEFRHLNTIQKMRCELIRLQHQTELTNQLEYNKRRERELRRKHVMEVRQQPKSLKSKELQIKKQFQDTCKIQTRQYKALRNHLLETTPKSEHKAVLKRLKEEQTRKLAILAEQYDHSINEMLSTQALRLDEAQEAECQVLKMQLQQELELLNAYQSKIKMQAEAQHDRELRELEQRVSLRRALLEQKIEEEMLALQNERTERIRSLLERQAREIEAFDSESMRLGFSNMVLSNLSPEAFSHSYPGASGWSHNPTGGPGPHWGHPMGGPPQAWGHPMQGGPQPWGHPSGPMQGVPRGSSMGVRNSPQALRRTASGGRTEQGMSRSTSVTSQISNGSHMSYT
In assay [9] the target is Casein kinase I isoform gamma-1 (Homo sapiens, UniProt Q9HCP0). It counts as functional.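 Note: measured as the CSNK1G1 member of a kinome profiling panel.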
Casein kinase I isoform gamma-1, sequence (Q9HCP0 whole entry, canonical isoform): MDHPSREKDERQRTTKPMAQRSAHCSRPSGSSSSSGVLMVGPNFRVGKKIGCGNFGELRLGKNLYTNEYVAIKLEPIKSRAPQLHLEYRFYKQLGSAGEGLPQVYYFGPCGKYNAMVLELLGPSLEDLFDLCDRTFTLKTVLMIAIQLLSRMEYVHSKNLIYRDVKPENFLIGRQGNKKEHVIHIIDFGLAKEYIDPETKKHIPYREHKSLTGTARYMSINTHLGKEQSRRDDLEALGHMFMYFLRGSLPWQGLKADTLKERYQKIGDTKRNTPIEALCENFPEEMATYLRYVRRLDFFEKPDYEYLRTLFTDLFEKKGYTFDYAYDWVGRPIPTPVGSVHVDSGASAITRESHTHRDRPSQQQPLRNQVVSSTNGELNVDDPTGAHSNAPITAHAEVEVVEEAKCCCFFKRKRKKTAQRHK
Assay [10] deals with Mitogen-activated protein kinase 12 (Homo sapiens, UniProt P53778). Format: functional.
Assay [11] has as its target Tyrosine-protein kinase FRK (Homo sapiens, UniProt P42685). Format: functional.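 Note: FRK tested as one member of a kinome panel.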
In assay [12] the target is Serine/threonine-protein kinase PAK 4 (Homo sapiens, UniProt O96013). Format: functional.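 Note: value obtained within a kinome profiling panel in which PAK4 was one of the panel members.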
Serine/threonine-protein kinase PAK 4, sequence (O96013 whole entry): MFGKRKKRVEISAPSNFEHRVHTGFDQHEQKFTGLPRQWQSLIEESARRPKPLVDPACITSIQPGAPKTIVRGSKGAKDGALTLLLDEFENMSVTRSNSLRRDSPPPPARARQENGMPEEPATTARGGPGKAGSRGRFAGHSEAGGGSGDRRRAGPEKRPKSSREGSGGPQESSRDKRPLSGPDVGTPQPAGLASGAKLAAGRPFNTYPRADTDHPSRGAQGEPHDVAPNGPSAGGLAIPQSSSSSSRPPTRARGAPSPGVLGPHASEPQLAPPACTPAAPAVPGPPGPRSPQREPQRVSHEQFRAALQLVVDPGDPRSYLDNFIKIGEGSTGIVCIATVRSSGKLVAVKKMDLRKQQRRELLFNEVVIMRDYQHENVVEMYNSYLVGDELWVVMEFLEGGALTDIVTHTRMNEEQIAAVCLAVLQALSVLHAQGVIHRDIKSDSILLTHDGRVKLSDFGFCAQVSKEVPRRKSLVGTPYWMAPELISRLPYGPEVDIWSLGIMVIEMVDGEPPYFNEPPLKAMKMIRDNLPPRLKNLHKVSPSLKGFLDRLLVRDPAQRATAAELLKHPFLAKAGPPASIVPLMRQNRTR
In assay [13] the target is Cyclin-dependent kinase 5 (Homo sapiens, UniProt Q00535). It counts as functional.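 Note: CDK5 measured as one member of a kinase profiling panel.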
Cyclin-dependent kinase 5, sequence (Q00535 whole entry): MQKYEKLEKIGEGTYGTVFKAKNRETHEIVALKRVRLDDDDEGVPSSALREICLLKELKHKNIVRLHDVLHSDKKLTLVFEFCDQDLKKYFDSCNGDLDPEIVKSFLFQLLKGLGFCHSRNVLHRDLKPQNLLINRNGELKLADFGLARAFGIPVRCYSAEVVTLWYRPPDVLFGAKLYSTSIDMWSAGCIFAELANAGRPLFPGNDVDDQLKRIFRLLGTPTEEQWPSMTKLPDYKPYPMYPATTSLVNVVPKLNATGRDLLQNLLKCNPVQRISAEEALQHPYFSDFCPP
Assay [14] has as its target Non-receptor tyrosine-protein kinase TYK2 (Homo sapiens, UniProt P29597). It counts as functional.
Assay [15] concerns the target Tyrosine-protein kinase Fyn (Homo sapiens, UniProt P06241). It counts as functional.
For assay [16], the target named is Rho-associated protein kinase 1 (Homo sapiens, UniProt Q13464). It counts as functional.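 Note: measured within a broad kinome-wide panel profiling many kinases.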
Rho-associated protein kinase 1, sequence (Q13464 whole entry): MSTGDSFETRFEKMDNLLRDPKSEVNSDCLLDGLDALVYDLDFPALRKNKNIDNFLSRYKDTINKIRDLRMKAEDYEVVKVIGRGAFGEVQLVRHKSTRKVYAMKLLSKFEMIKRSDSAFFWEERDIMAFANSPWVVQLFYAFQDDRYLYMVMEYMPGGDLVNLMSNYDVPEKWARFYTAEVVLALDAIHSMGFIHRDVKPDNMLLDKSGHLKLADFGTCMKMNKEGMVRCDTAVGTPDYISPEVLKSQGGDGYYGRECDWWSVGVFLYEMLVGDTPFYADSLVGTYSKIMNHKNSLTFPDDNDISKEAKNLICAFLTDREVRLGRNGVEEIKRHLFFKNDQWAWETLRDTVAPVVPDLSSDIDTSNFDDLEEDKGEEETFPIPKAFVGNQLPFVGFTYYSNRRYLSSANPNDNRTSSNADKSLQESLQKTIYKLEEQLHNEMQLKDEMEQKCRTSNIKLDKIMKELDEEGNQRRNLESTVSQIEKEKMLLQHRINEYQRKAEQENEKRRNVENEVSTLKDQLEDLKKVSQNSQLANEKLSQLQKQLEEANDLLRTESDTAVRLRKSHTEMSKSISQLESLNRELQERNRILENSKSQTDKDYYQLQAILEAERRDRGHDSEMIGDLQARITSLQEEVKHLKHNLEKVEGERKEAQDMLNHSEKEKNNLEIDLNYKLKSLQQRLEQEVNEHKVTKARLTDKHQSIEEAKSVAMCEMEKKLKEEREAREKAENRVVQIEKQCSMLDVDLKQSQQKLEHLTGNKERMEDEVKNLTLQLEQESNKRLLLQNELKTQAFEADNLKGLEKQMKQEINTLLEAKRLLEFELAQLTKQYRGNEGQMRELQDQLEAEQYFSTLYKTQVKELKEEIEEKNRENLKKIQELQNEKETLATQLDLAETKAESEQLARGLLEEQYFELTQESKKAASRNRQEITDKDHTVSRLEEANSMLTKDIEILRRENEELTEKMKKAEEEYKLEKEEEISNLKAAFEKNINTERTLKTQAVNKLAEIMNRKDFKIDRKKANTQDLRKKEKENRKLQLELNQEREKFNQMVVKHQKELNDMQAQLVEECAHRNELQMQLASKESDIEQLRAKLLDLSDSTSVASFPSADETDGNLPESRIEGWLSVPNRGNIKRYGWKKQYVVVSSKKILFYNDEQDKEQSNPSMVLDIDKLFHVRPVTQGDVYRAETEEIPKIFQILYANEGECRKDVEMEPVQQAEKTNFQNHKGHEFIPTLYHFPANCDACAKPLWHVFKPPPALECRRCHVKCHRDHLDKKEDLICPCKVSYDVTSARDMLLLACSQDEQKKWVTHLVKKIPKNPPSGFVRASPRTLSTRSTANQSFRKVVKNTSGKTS
Assay [17] addresses BDNF/NT-3 growth factors receptor (Homo sapiens, UniProt Q16620). Format: functional.
Assay [18] has as its target High affinity nerve growth factor receptor (Homo sapiens, UniProt P04629). It counts as functional.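 Note: NTRK1 tested as one member of a kinome-wide profiling panel.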
For assay [19], the target named is Insulin-like growth factor 1 receptor (Homo sapiens, UniProt P08069). Description: Navigating the Kinome. Panel member name: IGF1R. Format: functional.
Assay [20] deals with RAC-gamma serine/threonine-protein kinase (Homo sapiens, UniProt Q9Y243). Format: functional.
The target in assay [21] is Aurora kinase A (Homo sapiens, UniProt O14965). Format: functional.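 Note: value from the Navigating the Kinome kinase panel profiling, panel entry STK6.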
In assay [22] the target is T1, Rac GTPase-activating protein 1 (Homo sapiens, UniProt Q9H0H5).
T1 sequence (Q9H0H5 whole entry): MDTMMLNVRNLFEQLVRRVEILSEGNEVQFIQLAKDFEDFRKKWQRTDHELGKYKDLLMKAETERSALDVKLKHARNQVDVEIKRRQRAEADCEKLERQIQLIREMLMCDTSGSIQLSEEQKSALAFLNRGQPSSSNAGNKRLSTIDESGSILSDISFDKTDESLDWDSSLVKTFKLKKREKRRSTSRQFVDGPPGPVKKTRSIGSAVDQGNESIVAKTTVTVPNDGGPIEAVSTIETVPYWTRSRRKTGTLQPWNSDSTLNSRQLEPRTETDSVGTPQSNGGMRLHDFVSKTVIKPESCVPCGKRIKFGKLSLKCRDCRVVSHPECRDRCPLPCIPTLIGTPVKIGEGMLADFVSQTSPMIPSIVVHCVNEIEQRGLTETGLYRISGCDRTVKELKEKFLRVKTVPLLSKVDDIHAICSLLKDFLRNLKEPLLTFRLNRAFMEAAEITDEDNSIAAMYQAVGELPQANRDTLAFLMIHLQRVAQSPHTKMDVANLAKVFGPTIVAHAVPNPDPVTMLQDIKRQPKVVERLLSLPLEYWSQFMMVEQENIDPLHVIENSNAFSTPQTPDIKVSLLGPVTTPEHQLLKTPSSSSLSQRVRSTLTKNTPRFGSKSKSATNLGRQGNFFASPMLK
Kind of assay: MgcRacGAP GTPase-activating activity inhibitors, confirmation, biochemical, ADP Hunter fluorescence, primary and confirmatory (AID 624330). It counts as functional.

Assay [23] addresses T2, RNA-binding protein pos-1 (Caenorhabditis elegans, UniProt G5EF15).
T2 sequence (G5EF15 whole entry): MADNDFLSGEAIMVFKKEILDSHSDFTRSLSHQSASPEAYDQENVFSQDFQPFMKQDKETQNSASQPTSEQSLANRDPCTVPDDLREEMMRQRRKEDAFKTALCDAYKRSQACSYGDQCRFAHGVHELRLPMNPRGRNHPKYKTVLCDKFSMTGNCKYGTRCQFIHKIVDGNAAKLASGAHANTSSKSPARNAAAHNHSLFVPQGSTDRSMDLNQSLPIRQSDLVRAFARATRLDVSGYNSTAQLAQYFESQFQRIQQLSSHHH
Kind of assay: inhibitors of POS-1/mex-3 RNA binding, dose response, biochemical, fluorescence polarization (AID 1964).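 Note: purified POS-1 fused to maltose binding protein made in E. coli; potency of compounds blocking POS-1 binding to fluorescent RNA.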 In general terms: Fluorescence polarisation rises when a labelled molecule tumbles more slowly, as on binding a larger partner.

For assay [24], the target named is ORF 73 (Human herpesvirus 8, UniProt O40947). Kind of assay: inhibitors of C-LANA binding to LBS DNA, dose response, biochemical, fluorescence polarization, cherry-picked samples (AID 504725).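 Note: fluorescence polarization of a labeled DNA duplex reporting LANA DNA binding; potency is for inhibitors that block LANA binding to the DNA.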 More on the design: species or system Human gammaherpesvirus 8.
The target in assay [25] is T3, Sentrin-specific protease 8 (Homo sapiens, UniProt Q96LD8).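 Note: luminescence read-out of SENP8 inhibition, dose-response confirmation following an ultra-high-throughput screen.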
T3 sequence (Q96LD8 whole entry): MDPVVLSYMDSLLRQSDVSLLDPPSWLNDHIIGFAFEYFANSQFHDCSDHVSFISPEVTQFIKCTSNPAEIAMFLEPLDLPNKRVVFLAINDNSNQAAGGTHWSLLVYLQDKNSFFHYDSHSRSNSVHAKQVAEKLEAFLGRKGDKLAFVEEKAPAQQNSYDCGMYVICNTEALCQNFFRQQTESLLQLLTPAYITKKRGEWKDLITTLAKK
It counts as functional.

Assay [26] has as its target Cytochrome P450 3A4 (Homo sapiens, UniProt P08684).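 Note: CYP3A4 tested as one member of a cytochrome P450 panel screen.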
Assay [27] is described as follows: Artemis endonuclease inhibitor potency, dose response, biochemical, fluorescence intensity (AID 720701).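 Note: Artemis endonuclease enzyme.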 Format: functional.
Assay [28] in a line: C. albicans growth with fluconazole, confirmation, fluorescence, retest (AID 2467). Format: functional, cell-based.
Assay [29] addresses Serine/threonine-protein phosphatase (Candida dubliniensis (strain CD36 / CBS 7987 / NCPF 3949 / NRRLY-17841) (Yeast), UniProt B9W6M3). Kind of assay: Fluorescence Cell-Based Secondary Assay to Identify Inhibitors of Calcineurin. [Related pubchem assays (depositor defined):AID1979, AID2007]. Format: functional.

Protein-tyrosine kinase 6, sequence (Q13882 whole entry): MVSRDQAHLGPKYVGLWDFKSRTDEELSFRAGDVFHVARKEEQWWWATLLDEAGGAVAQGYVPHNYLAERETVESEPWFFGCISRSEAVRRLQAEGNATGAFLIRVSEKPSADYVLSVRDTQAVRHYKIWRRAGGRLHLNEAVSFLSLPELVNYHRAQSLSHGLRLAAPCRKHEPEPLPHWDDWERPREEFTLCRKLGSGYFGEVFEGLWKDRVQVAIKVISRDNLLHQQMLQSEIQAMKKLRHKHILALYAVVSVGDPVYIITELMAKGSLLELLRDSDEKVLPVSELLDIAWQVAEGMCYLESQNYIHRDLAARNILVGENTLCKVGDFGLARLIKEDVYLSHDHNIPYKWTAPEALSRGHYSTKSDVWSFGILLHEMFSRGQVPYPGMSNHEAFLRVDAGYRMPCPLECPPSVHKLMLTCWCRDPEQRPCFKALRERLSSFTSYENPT
Serine/threonine-protein phosphatase, sequence (B9W6M3 whole entry): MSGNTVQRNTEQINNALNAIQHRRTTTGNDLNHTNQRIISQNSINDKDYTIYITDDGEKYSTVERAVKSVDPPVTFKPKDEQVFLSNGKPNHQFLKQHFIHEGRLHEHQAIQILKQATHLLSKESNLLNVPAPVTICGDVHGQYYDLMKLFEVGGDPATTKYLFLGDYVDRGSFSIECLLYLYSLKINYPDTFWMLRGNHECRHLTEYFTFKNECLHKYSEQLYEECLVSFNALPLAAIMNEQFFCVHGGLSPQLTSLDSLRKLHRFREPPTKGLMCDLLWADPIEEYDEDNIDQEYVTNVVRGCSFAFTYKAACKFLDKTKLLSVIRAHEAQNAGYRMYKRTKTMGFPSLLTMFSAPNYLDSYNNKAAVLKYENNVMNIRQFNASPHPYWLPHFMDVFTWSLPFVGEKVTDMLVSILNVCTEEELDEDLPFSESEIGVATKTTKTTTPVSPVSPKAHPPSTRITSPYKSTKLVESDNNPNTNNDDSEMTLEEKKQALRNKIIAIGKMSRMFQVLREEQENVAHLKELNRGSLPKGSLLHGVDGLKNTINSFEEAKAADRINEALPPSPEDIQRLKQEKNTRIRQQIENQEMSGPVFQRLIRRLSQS

Usually Ki stands for a dissociation constant, usually derived from enzyme kinetics or from competition with a known ligand. For the compound `Cc1cccc(NC(=O)Nc2ccc3c(c2)CCc2sc4ncnc(N)c4c2-3)c1`, the Ki was > 2.51 µM (inactive) in [1]; > 1.58 µM (inactive) in [2]; > 100 µM (inactive) in [3]; > 5.01 µM (inactive) in assay [4]; > 10 µM (inactive) in assay [5]; > 3.16 µM (inactive) in assay [6]. Also, the Ki in assay [7] was 0.501 µM (active); in assay [8], 3.98 µM (active); in assay [9] it was 2.51 µM (active); in assay [10] it was > 6.31 µM (inactive); in assay [11] it was 0.2 µM (active); in assay [12], > 5.01 µM (inactive). In addition, the Ki is > 10 µM (inactive) in [13]; > 2 µM (inactive) in assay [14]; > 0.794 µM (inactive) in assay [15]; 0.794 µM (active) in assay [16]; 0.2 µM (active) in assay [17]; 1.26 µM (active) in assay [18]. The Ki was > 2 µM (inactive) in assay [19], > 10 µM (inactive) in [20] and 0.0794 µM (active) in assay [21].

The IC50 is the point on the concentration scale where inhibition reaches its midpoint. With `Cc1ccc(-n2sc3ccccc3c2=O)cc1`, the IC50 in assay [22] is 87.4 µM (active).

The EC50 is the concentration needed to bring the measured effect to its halfway point. As a reminder, the AC50 is the concentration giving half of the maximal activity seen. For the compound `N/C(=N\N=C/c1ccc(-c2ccc(O)c(C(=O)O)c2)o1)N[N+](=O)[O-]`, the EC50 in [23] is 29.9 µM (active). Also, in assay [24], the concentration at half-maximal activity (AC50) is 111 µM (active).

On to `CC(=O)N(/N=C1\Sc2ccccc2C1=O)c1ccccc1C`, for which the IC50 in assay [25] is 3.46 µM (active); in assay [27], 7.4 µM (active). The half-maximal activity concentration (AC50) in [26] was 31.6 µM (inconclusive).

`CCCC(=O)NC(c1ccc(Cl)cc1)c1ccc2cccnc2c1O` (centres undefined): the EC50 in assay [28] was 0.365 µM (active); in [29], > 285 µM (inactive).
